IC50 data for ten molecules are collected here from US20250206761A1, “HALOINDOLE MACROCYCLIC COMPOUNDS FOR THE TREATMENT OF CANCER” (Hoffmann-La Roche Inc., priority 2022, published 2025).

Test [1] deals with KRAS G12D binding to BRAF (Homo sapiens (Human), UniProt P01116+P62937, G12D). Description: KRAS-BRAF with CYPA (500 nM) interaction assay (TR-FRET), G12D. Type of test: biochemical. In general terms: Time-resolved FRET reads energy transfer from a long-lived donor to a nearby acceptor.
For test [2], the system named is phosphorylation of ERK, KRAS G12C in NCJ-H358 cells. Description: pERK inhibition assay, KRAS G12C. Type of test: cell-based, human. The conditions noted are these: Homo sapiens, 4 hours. The gist of the method:
(§1)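 ERK phosphorylation is measured after 4 h of compound exposure in attached cells, using a colorimetric immunoassay on fixed, permeabilized monolayers. IC50 is derived by 4-parameter sigmoidal fitting.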

Test [3] relates to phosphorylation of ERK, KRAS G12D in AGS cells. Description: pERK inhibition assay, KRAS G12D. The format is cell-based, human. The conditions noted are these: Homo sapiens, 4 hours. The gist of the method: as §1
For test [4], the system named is phosphorylation of ERK, KRAS G12V in SW620. Kind of test: pERK inhibition assay, KRAS G12V. Type of test: cell-based, human. The conditions noted are these: Homo sapiens, SW-620, SW620, 4 hours. In a few lines:
as §1

The target in a further test is KRAS G12C-BRAF complex (Homo sapiens (Human), UniProt P01116+P62937, G12C). Kind of test: KRAS-BRAF with CYPA (500 nM) interaction assay (TR-FRET), G12C. The format is biochemical.
Test [5] addresses KRAS G12V binding to BRAF (Homo sapiens (Human), UniProt P01116+P62937, G12V). Kind of test: KRAS-BRAF with CYPA (500 nM) interaction assay (TR-FRET), G12V. The format is biochemical. In a few lines:
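A TR-FRET assay measured how compound, in the presence of CYPA, disrupts binding of GMPPNP-loaded 6His-KRAS G12V to BRAF. The buffer contained 25 mM HEPES PH=7.4, 0.002% Tween20, 0.1% BSA, 100 mM NaCl, 5 mM MgCl2 and 10 μM GMPPNP. Compounds ran as a 16-point 3-fold dilution series from 10 μM for 3 hours.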

Molecules are shown by their SMILES. Some results are limits rather than exact numbers.

Sequence of KRAS G12D binding to BRAF (P01116-2 other isoform, or with tags, fused parts or gaps G12D): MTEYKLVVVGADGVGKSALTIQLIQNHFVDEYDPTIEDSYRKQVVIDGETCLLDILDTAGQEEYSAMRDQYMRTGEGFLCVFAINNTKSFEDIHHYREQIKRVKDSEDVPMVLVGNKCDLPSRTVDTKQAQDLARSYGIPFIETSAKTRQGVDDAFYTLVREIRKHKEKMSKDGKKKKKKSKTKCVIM
Sequence of KRAS G12D binding to BRAF (P62937 whole entry): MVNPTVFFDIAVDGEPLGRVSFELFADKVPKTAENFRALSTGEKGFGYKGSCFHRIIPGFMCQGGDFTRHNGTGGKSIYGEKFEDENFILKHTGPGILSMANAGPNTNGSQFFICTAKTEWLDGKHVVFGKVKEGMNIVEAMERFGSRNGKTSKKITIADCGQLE
Sequence of KRAS G12V binding to BRAF (P01116-2 other isoform, or with tags, fused parts or gaps G12V): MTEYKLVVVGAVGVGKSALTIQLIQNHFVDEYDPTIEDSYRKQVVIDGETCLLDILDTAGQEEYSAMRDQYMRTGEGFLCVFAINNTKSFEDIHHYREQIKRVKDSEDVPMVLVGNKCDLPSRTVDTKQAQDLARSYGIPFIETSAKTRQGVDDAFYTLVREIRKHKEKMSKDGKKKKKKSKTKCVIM
Sequence of KRAS G12V binding to BRAF (P62937 whole entry): as the sequence (P62937 whole entry) above
Sequence of KRAS G12C-BRAF complex (P01116-2 other isoform, or with tags, fused parts or gaps G12C): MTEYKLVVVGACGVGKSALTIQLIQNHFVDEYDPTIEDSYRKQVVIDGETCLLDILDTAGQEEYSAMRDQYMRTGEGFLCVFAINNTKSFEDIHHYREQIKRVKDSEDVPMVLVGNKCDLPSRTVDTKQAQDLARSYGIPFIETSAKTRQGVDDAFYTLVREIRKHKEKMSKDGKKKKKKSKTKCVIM
Sequence of KRAS G12C-BRAF complex (P62937 whole entry): as the sequence (P62937 whole entry) above

In general, IC50 refers to the concentration needed to halve the response being measured. With `CO[C@@H](C)c1ncc(N2CCN(C)CC2)cc1-c1c2c3cc(c(F)cc3n1CC(F)(F)F)-c1cc(O)cc(c1)C[C@H](NC(=O)[C@H](C(C)C)N(C)C(=O)[C@H]1CCN(C(=O)[C@H](F)Cl)C1)C(=O)N1CCC[C@H](N1)C(=O)OCC(C)(C)C2` (atropisomer, axis not shown; (M)) [Example 8, (3S)-1-[(2R)-2-chloro-2-fluoro-acetyl]-N-[(1S)-1-[[(8S,14S)-25-fluoro-4-hydroxy-(21M)-21-[2-[(1S)-1-methoxyethyl]-5-(4-methylpiperazin-1-yl)-3-pyridyl]-18,18-dimethyl-9,15-dioxo-22-(2,2,2-trifluoroethyl)-16-oxa-10,22,28-triazapentacyclo[18.5.2.1^2,6.1^10,14.0^23,27]nonacosa-1(26),2,4,6(29),20,23(27),24-heptaen-8-yl]carbamoyl]-2-methyl-propyl]-N-methyl-pyrrolidine-3-carboxamide], the IC50 amounted to 85 nM in test [1]; 2 nM in test [2]; 90 nM in test [3]; 127 nM in test [4]; 3 nM against KRAS G12C-BRAF complex; 10 nM in test [5].
With `CO[C@@H](C)c1ncc(N2CCN(C)CC2)cc1-c1c2c3cc(c(F)cc3n1CC(F)(F)F)-c1csc(n1)C[C@H](NC(=O)[C@H](C(C)C)N1CCC[C@]3(CCN(C(=O)[C@H](F)Cl)C3)C1=O)C(=O)N1CCC[C@H](N1)C(=O)OCC(C)(C)C2` (single isomer, unassigned) [Example 18], the IC50 is 1660 nM in test [1]; 3 nM in test [2]; 26 nM in test [3]; 18 nM in test [4]; 71 nM against KRAS G12C-BRAF complex; 3330 nM in test [5].
For `CCn1c(-c2cc(N3CCOCC3)cnc2[C@H](C)OC)c2c3cc(c(F)cc31)-c1csc(n1)C[C@H](NC(=O)[C@H](C(C)C)N(C)C(=O)C1(F)CCN(C(=O)[C@H](F)Cl)CC1)C(=O)N1CCC[C@H](N1)C(=O)OCC(C)(C)C2` (atropisomer, axis not shown; (M)) [Example 54, 1-[(2R)-2-chloro-2-fluoro-acetyl]-N-[(1S)-1-[[(7S,13S)-21-ethyl-24-fluoro-(20M)-20-[2-[(1S)-1-methoxyethyl]-5-morpholino-3-pyridyl]-17,17-dimethyl-8,14-dioxo-15-oxa-4-thia-9,21,27,28-tetrazapentacyclo[17.5.2.1^2,5.1^9,13.0^22,26]octacosa-1(25),2,5(28),19,22(26),23-hexaen-7-yl]carbamoyl]-2-methyl-propyl]-4-fluoro-N-methyl-piperidine-4-carboxamide], the IC50 in test [1] worked out at 303 nM; in test [2] it was 2 nM; in test [3], 25 nM; in test [4], 15 nM; against KRAS G12C-BRAF complex it was 19 nM; in test [5], 217 nM.
For the molecule `CCn1c(-c2cc(N3CCN(CC(F)(F)F)CC3)cnc2[C@H](C)OC)c2c3cc(c(F)cc31)-c1csc(n1)C[C@H](NC(=O)[C@H](C(C)C)N(C)C(=O)C1(F)CCN(C(=O)[C@H](F)Cl)CC1)C(=O)N1CCC[C@H](N1)C(=O)OCC(C)(C)C2` (atropisomer, axis not shown; (M)) [Example 49, 1-[(2R)-2-chloro-2-fluoro-acetyl]-N-[(1S)-1-[[(7S,13S)-21-ethyl-24-fluoro-(20M)-20-[2-[(1S)-1-methoxyethyl]-5-[4-(2,2,2-trifluoroethyl)piperazin-1-yl]-3-pyridyl]-17,17-dimethyl-8,14-dioxo-15-oxa-4-thia-9,21,27,28-tetrazapentacyclo[17.5.2.1^2,5.1^9,13.0^22,26]octacosa-1(25),2,5(28),19,22(26),23-hexaen-7-yl]carbamoyl]-2-methyl-propyl]-4-fluoro-N-methyl-piperidine-4-carboxamide], the concentration for half-maximal inhibition (IC50) came to 444 nM in test [1]; 3 nM in test [2]; 65 nM in test [3]; 20 nM in test [4]; 15 nM on KRAS G12C-BRAF complex; 577 nM in test [5].
In the case of `CC(C)[C@@H](C(=O)N[C@H]1Cc2cc(O)cc(c2)-c2ccc3c(C(C)(C)C#N)cn(c3c2)CC(C)(C)COC(=O)[C@@H]2CCCN(N2)C1=O)N1CCC2(CN(C(=O)CCl)C2)C1=O` [RM44, reference compound], the IC50 in test [1] was > 10000 nM; in test [2] it was 1900 nM; in test [3], > 10000 nM; in test [4] it was > 10000 nM; at KRAS G12C-BRAF complex, 17 nM; in test [5], > 10000 nM.
Regarding `CCn1c(-c2cc(N3CCOCC3)cnc2[C@H](C)OC)c2c3cc(c(F)cc31)-c1csc(n1)C[C@H](NC(=O)[C@H](C(C)C)N1CC[C@@]3(CCN(C(=O)[C@H](F)Cl)C3)C1=O)C(=O)N1CCC[C@H](N1)C(=O)OCC(C)(C)C2` (atropisomer, axis not shown; (M)) [Example 53, (2S)-2-[(5R)-7-[(2R)-2-chloro-2-fluoro-acetyl]-1-oxo-2,7-diazaspiro[4.4]nonan-2-yl]-N-[(7S,13S)-21-ethyl-24-fluoro-(20M)-20-[2-[(1S)-1-methoxyethyl]-5-morpholino-3-pyridyl]-17,17-dimethyl-8,14-dioxo-15-oxa-4-thia-9,21,27,28-tetrazapentacyclo[17.5.2.1^2,5.1^9,13.0^22,26]octacosa-1(25),2,5(28),19,22(26),23-hexaen-7-yl]-3-methyl-butanamide], the IC50 in test [1] was > 10000 nM; in test [2], 3 nM; in test [3], 46 nM; in test [4] it was 61 nM; at KRAS G12C-BRAF complex, 56 nM; in test [5], > 10000 nM.
For the molecule `CC(C)[C@@H](C(=O)N[C@H]1Cc2cc(O)cc(c2)-c2ccc3c(C(C)(C)C#N)cn(c3c2)CC(C)(C)COC(=O)[C@@H]2CCCN(N2)C1=O)N1CCCC2(CCN(C(=O)CCl)C2)C1=O` (some centres unmarked) [RM351, reference compound], the IC50 was > 10000 nM in test [1]; 356 nM in test [2]; > 10000 nM in test [3]; > 10000 nM in test [4]; > 10000 nM against KRAS G12C-BRAF complex; > 10000 nM in test [5].
On to `CO[C@@H](C)c1ncc(N2CCN(C)CC2)cc1-c1c2c3cc(c(F)cc3n1CC(F)(F)F)-c1csc(n1)C[C@H](NC(=O)[C@H](C(C)C)N(C)C(=O)C1(F)CCN(C(=O)[C@H](F)Cl)CC1)C(=O)N1CCC[C@H](N1)C(=O)OCC(C)(C)C2` (atropisomer, axis not shown; (M)) [Example 10, 1-[(2R)-2-chloro-2-fluoro-acetyl]-4-fluoro-N-[(1S)-1-[[(7S,13S)-24-fluoro-(20M)-20-[2-[(1S)-1-methoxyethyl]-5-(4-methylpiperazin-1-yl)-3-pyridyl]-17,17-dimethyl-8,14-dioxo-21-(2,2,2-trifluoroethyl)-15-oxa-4-thia-9,21,27,28-tetrazapentacyclo[17.5.2.1^2,5.1^9,13.0^22,26]octacosa-1(25),2,5(28),19,22(26),23-hexaen-7-yl]carbamoyl]-2-methyl-propyl]-N-methyl-piperidine-4-carboxamide], for which the IC50 in test [1] is 964 nM; in test [2], < 1 nM; in test [3], 16 nM; in test [4], 6 nM; on KRAS G12C-BRAF complex it was 20 nM; in test [5], 136 nM.
Regarding `CCn1c(-c2cc(N3CCOCC3)cnc2[C@H](C)OC)c2c3cc(c(F)cc31)-c1csc(n1)C[C@H](NC(=O)[C@H](C(C)C)N1CCC3(CN(C(=O)[C@H](F)Cl)C3)C1=O)C(=O)N1CCC[C@H](N1)C(=O)OCC(C)(C)C2` (atropisomer, axis not shown; (M)) [Example 52, (2S)-2-[2-[(2R)-2-chloro-2-fluoro-acetyl]-5-oxo-2,6-diazaspiro[3.4]octan-6-yl]-N-[(7S,13S)-21-ethyl-24-fluoro-(20M)-20-[2-[(1S)-1-methoxyethyl]-5-morpholino-3-pyridyl]-17,17-dimethyl-8,14-dioxo-15-oxa-4-thia-9,21,27,28-tetrazapentacyclo[17.5.2.1^2,5.1^9,13.0^22,26]octacosa-1(25),2,5(28),19,22(26),23-hexaen-7-yl]-3-methyl-butanamide], the IC50 in test [1] is 2060 nM; in test [2], 4 nM; in test [3], 103 nM; in test [4], 58 nM; on KRAS G12C-BRAF complex, 115 nM; in test [5], > 10000 nM.
For the molecule `CCn1c(-c2cc(N3CCN(CC(F)(F)F)CC3)cnc2[C@H](C)OC)c2c3cc(c(F)cc31)-c1csc(n1)C[C@H](NC(=O)[C@H](C(C)C)N1CCC3(CN(C(=O)[C@H](F)Cl)C3)C1=O)C(=O)N1CCC[C@H](N1)C(=O)OCC(C)(C)C2` (atropisomer, axis not shown; (M)) [Example 37, (2S)-2-[2-[(2R)-2-chloro-2-fluoro-acetyl]-5-oxo-2,6-diazaspiro[3.4]octan-6-yl]-N-[(7S,13S)-21-ethyl-24-fluoro-(20M)-20-[2-[(1S)-1-methoxyethyl]-5-[4-(2,2,2-trifluoroethyl)piperazin-1-yl]-3-pyridyl]-17,17-dimethyl-8,14-dioxo-15-oxa-4-thia-9,21,27,28-tetrazapentacyclo[17.5.2.1^2,5.1^9,13.0^22,26]octacosa-1(25),2,5(28),19,22(26),23-hexaen-7-yl]-3-methyl-butanamide], the IC50 in test [1] stood at 964 nM; in test [2], 3 nM; in test [4] it was 21 nM; at KRAS G12C-BRAF complex, 39 nM; in test [5] it was 1360 nM.
